# Where a name gives a salt, the structure may show the parent alone.
# What was measured:
# [1] = test system: C. freundii AmpC, TEM-1, CMY65; assay: MIC, CLSI broth microdilution, beta-lactam with or without BLI; type: cell-based
# E. coli WT (ATCC 25922) = assay: as above; type: cell-based
# [2] = test system: Klebsiella pneumoniae SHV-18, OXA-2, OKP-6 (ATCC 700603); assay: as above; type: cell-based
# [3] = test system: E. coli ARC2687 (AmpC, CTX-M-14); assay: Cefpodoxime MIC against clinical isolate E. coli ARC2687; type: cell-based
# [4] = biological target: OXA-48 (Class D beta-lactamase) (Klebsiella pneumoniae, UniProt Q6XEC0); assay: Inhibition of beta-lactamase enzymes (nitrocefin hydrolysis), OXA-48; type: biochemical; details: read-out: Class D OXA-48 60 min IC50, nitrocefin 100 μM
# Outline: (§1)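 Nitrocefin (100 μM) hydrolysis followed at 490 nm for 1 h in 0.1 M sodium phosphate pH 7.0, 10 mM NaHCO3, 0.005% Triton X-100, with 3-fold inhibitor dilutions from 100 μM to 62.7 pM. Progress curves fitted globally to give kinact/Ki or Ki; percent inhibition from best-fit absorbance fitted with Hill equation.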
# [5] = Rat PK, intravenous and oral; type: in vivo, Sprague-Dawley rats; details: Sprague-Dawley, plasma; rat, IV 10 mg/kg; analyte = compound administered
# Method: Intravenous rat pharmacokinetics of exemplar compounds were determined in jugular vein cannulated Sprague-Dawley rats (n=3) (Harlan Laboratories, Indianapolis, Ind.) at a dose of 10 mg/kg. Compounds were dissolved and administered intravenously in 0.9% saline, pH 6.5 at a dose volume of 2 mL/kg. […] Oral pharmacokinetic studies were conducted with exemplar compounds at 10 mg/kg equivalents of carboxylic acids. Doses were dissolved and administered orally in 25:75 PEG400: water for injection, pH 4.5 at a dose volume of 10 mL/kg. […] Plasma samples were stored at −80° C. prior to bioanalysis.
# Plasma samples were thawed on ice prior to processing. Samples (30 μL) were diluted and proteins precipitated with 180 μL of acetonitrile containing 0.1% formic acid and 250 ng/mL of carbutamide (N1-(butylcarbanoyl)-sulfanilamide, Sigma-Aldrich Catalog # S385433) as an internal standard. Samples were vortexed for 30 seconds, centrifuged at 3400 g for 10 minutes and the supernatant transferred to injection vials.
# LC/MS/MS analysis was completed on an AB Sciex QTrap 6500 mass spectrometer in positive ionization mode, coupled to a Schimadzu Nexera LC system. A Waters Atlantis T3 (3 μm, 3.0×50 mm) column was used for chromatographic separation. Injection volume was […] The mobile phase consisted 0.1% formic acid in water (A) and 0.1% formic acid in acetonitrile (B), with a gradient of 2-98% B:A over two minutes.
# Plasma concentration vs. time profiles following intravenous (IV) administration and oral (PO) administration of exemplar compounds were analyzed by non-compartment analysis using WinNonLin 6.4.
# [6] = biological target: TEM-1 (Class A beta-lactamase) (Escherichia coli, UniProt P62593); assay: Inhibition of beta-lactamase enzymes (nitrocefin hydrolysis), TEM-1; type: biochemical; details: read-out: Class A TEM-1 60 min IC50, nitrocefin 100 μM
# Outline: as §1
# [7] = test system: E. coli AmpC, OXA-1, CTX-M-15, TEM-1; assay: MIC, CLSI broth microdilution, cefpodoxime with or without BLI; type: cell-based; details: Escherichia coli, read-out: MIC of beta-lactam alone, heading: MIC of beta-lactam alone, no BLI
# Method: The minimal inhibitory concentration (MIC) values against each organism and drug combination were determined using the Clinical and Laboratory Standards Institute guidelines (CLSI) broth microdilution methodology (CLSI M07-A10). The recommended quality control (QC) bacterial strains E. coli ATCC 25922, E. coli ATCC 35218 and Klebsiella pneumoniae ATCC 700603 were incorporated into each test according to the CLSI guidelines to assure that there was no variation between test dates (CLSI M100-S25). The MICs of these QC strains were within QC range on all test occasions. Drug containing plates were made using the master plate method. A cefpodoxime solution was prepared to 20× concentration and 2-fold serial dilutions were made in cation adjusted Mueller-Hinton Broth. Equal volumes of 20× examplar compounds at a fixed concentration were added to the master plate. 10 uL was stamped into daughter plates using a Tecan EVO robot. Organism suspensions were adjusted to a 0.5 McFarland standard and further diluted to yield a final inoculum between 3×10^5 and 7×10^5 colony-forming units (CFU)/mL. Bacterial inocula were made in sterile, cation adjusted Mueller-Hinton Broth (Beckton Dickinson). An inoculum volume of 1.1× concentration of 90 uL was added to wells (using a Tecan EVO robot). All inoculated microdilution plates were incubated in ambient air at 35° C. for 18-24 hours.
# [8] = test system: E. coli ARC2687 (AmpC, CTX-M-14); assay: Mouse neutropenic thigh infection model, oral efficacy of cefpodoxime proxetil with Example 35; type: in vivo
# [9] = BLI at fixed 4 μg/ml, K. pneumoniae ATCC 700603
# Chain of OXA-48 (Class D beta-lactamase) (Q6XEC0 whole entry, looked up, species assumed): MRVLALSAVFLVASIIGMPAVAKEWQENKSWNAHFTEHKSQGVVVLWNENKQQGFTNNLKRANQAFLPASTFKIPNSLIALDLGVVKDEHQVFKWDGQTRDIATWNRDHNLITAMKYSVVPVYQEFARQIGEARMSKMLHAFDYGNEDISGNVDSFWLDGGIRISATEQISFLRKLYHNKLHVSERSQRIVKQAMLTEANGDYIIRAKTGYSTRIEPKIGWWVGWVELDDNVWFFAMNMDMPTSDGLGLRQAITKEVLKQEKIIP
# Chain of TEM-1 (Class A beta-lactamase) (P62593 whole entry, looked up, species assumed): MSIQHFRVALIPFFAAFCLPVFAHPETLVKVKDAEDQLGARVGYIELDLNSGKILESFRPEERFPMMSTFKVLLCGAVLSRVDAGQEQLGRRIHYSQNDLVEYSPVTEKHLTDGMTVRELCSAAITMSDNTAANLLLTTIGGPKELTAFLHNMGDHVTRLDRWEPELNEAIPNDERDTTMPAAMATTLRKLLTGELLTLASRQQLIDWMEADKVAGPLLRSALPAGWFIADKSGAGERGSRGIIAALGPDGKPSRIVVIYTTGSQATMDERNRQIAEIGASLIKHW
structure (smiles),measurement,setting,value
"CC1=C[C@@H](C(N)=O)N2C[C@@H]1N(O[C@H](F)C(=O)O)C2=O [Example 33, (2R)-2-(((2S,5R)-2-carbamoyl-4-methyl-7-oxo-1,6-diazabicyclo[3.2.1]oct-3-en-6-yl)oxy)-2-fluoroacetic acid lithium salt]",MIC of cefixime in presence of BLI,[1]; BLI at fixed 4 μg/ml,≤0.06 µg/mL
same,MIC of cefuroxime in presence of BLI,[1]; BLI at fixed 4 μg/ml,<0.03125 µg/mL
same,MIC of faropenem in presence of BLI,[1]; BLI at fixed 4 μg/ml,≤0.06 µg/mL
same,MIC of tebipenem in presence of BLI,[1]; BLI at fixed 4 μg/ml,≤0.06 µg/mL
same,MIC of cefixime in presence of BLI,E. coli WT (ATCC 25922); BLI at fixed 4 μg/ml,≤0.06 µg/mL
same,MIC of cefuroxime in presence of BLI,E. coli WT (ATCC 25922); BLI at fixed 4 μg/ml,<0.03125 µg/mL
same,MIC of faropenem in presence of BLI,E. coli WT (ATCC 25922); BLI at fixed 4 μg/ml,≤0.06 µg/mL
same,MIC of tebipenem in presence of BLI,E. coli WT (ATCC 25922); BLI at fixed 4 μg/ml,≤0.06 µg/mL
same,MIC of cefixime in presence of BLI,[2]; [9],≤0.06 µg/mL
same,MIC of cefuroxime in presence of BLI,[2]; [9],4 µg/mL
same,MIC of faropenem in presence of BLI,[2]; [9],0.5 µg/mL
same,MIC of tebipenem in presence of BLI,[2]; [9],0.125 µg/mL
same,cefpodoxime MIC in combination with BLI,[3]; BLI at 4 μg/mL,< 0.03 µg/mL
same,IC50,[4],77 nM
same,AUC,[5],26.3 µM·h
same,IC50,[6],3.2 nM
"COCC1=C(C(=O)O)N2C(=O)[C@@H](NC(=O)/C(=N\OC)c3csc(N)n3)[C@H]2SC1 [Cefpodoxime, reference compound]",MIC,"[1]; Citrobacter freundii, read-out: MIC of beta-lactam alone, no BLI, heading: MIC of beta-lactam alone",> 64 µg/mL
same,MIC of beta-lactam alone,[1]; no BLI,>64 µg/mL
same,MIC,"E. coli WT (ATCC 25922); Escherichia coli, ATCC25922, no BLI, read-out: MIC of beta-lactam alone",1 µg/mL
same,MIC,"[2]; Klebsiella pneumoniae, ATCC700603, no BLI, K. pneumoniae SHV-18, OXA-2, OKP-6 (ATCC 700603), read-out: MIC of beta-lactam alone",16 µg/mL
same,MIC,[7],> 64 µg/mL
same,MIC,"[3]; Escherichia coli, cefpodoxime alone",> 512 µg/mL
C[C@@H](O)[C@H]1C(=O)N2C(C(=O)O)=C(S[C@@H]3CN[C@H](C(=O)N(C)C)C3)[C@H](C)[C@H]12 [Meropenem],reduction in CFU relative to initiation of therapy,"[8]; 600 mg/kg q6h administered subcutaneously, positive control",over 1 log10
same,log10CFU/gm thigh,"[8]; Meropenem 600 mg/kg SC/q6h, positive control, mouse neutropenic thigh, E. coli ARC2687",5.17 log10CFU/gm thigh
same,CFU Change from 26 hr,"[8]; Meropenem 600 mg/kg SC/q6h, relative to 26 hr growth control",−5.69 log10 CFU/gm
same,CFU Change from 2 hr,"[8]; Meropenem 600 mg/kg SC/q6h, relative to initiation of therapy",−1.10 log10 CFU/gm

# — patent publication US10800778B2 (Entasis Therapeutics Limited, priority 2016, dated 2020)
